Experimental data taken from US6867207B2, “IL-5 inhibiting 6-azauracil derivatives” (Janssen Pharmaceutica N.V., priority 1997, dated 2005).

test system: IL-5 production; experiment: In vitro inhibition of IL-5 production in human blood (phytohemagglutinin-stimulated whole blood, ELISA); assay type: cell-based; conditions: test dose 1×10^−6 M, 48 hours;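 also: values marked with an asterisk were tested at 10 µM and unmarked values at 1 µM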
Procedure: In Vitro Inhibition of IL-5 Production in Human Blood
Human Whole Blood Stimulation
Peripheral blood from healthy male donors was drawn into heparinized syringes (12.5 U heparin/ml). Blood samples were three-fold diluted in RMPI 1640 medium (Life Technologies, Belgium) supplemented with 2 mM L-glutamine, 100 U/ml penicillin and 100 μg/ml streptomycin, and 300 μl fractions were distributed in 24-well multidisc plates. Blood samples were preincubated (60 minutes at 37° C.) in a humidified 6% CO2-atmosphere with 100 μl of drug solvent (final concentration 0.02% dimethylsulfoxide in RPMI 1640) or with 100 μl of an appropriate dose of test compound before being stimulated by the addition of 100 μl of phytohemagglutinin HA17 (Murex, UK) at a final concentration of 2 μg/ml. After 48 hours, cell-free supernatant fluids were collected by centrifugation and stored at −70° C. until tested for the presence of IL-5.
IL-5 measurements were conducted as described in Van Wauwe et al. (1996, Inflamm Res, 45, 357-363) on page 358 using ELISA.
Table 9 lists the percentage inhibition of IL-5 production (column “% inh”) at a test dose of 1×10^−6 M, or in case the percentage inhibition is marked with an “*” 1×10^−5 M, the compounds of the present invention.

Going from `O=c1cnn(-c2cc(Cl)c(C(CSc3ccccn3)c3ccc(Cl)cc3)c(Cl)c2)c(=O)[nH]1` (racemic) [Compound 422, (±)-2-[3,5-dichloro[1-(4-chlorophenyl)-2-(2-pyridinylthio)ethyl]phenyl-1,2,4-triazine-3,5(2H,4H)-dione] to `O=c1cnn(-c2cc(Cl)c(C(Sc3nc4cccnc4s3)c3ccc(Cl)cc3)c(Cl)c2)c(=O)[nH]1` (stereo not drawn) [Compound 376], the “% inh. (percentage inhibition of IL-5 production)” value rises from 87% to 92%.

Going from `O=c1cnn(-c2cc(Cl)c(C(Sc3nc(-c4ccccc4)no3)c3ccc(Cl)cc3)c(Cl)c2)c(=O)[nH]1` (racemic) [Compound 408] to `O=c1cnn(-c2cc(Cl)c(C(c3ccc(Cl)cc3)c3nnc(-c4ccccc4)o3)c(Cl)c2)c(=O)[nH]1` (racemic) [Compound 127, (±)-2-[3,5-dichloro-4-[(4-chlorophenyl)(5-phenyl-1,3,4-oxadizol-2-yl)methyl]-phenyl]-1,2,4-triazine-3,5(2H,4H)-dione], the “% inh. (percentage inhibition of IL-5 production)” value rises from 88% to 94%.

Compared with `CN(C)C(=O)CCc1sc(C(c2ccc(Cl)cc2)c2c(Cl)cc(-n3ncc(=O)[nH]c3=O)cc2Cl)nc1-c1ccccc1` (racemic) [Comp 281], `CCCc1sc(C(c2ccc(Cl)cc2)c2c(Cl)cc(-n3ncc(=O)[nH]c3=O)cc2Cl)nc1-c1ccccc1` (racemic) [Comp 245] is higher in “% inh. (percentage inhibition of IL-5 production)” value: 91% for the first, 98% for the second.

Going from `O=C(O)Cc1sc(C(c2ccc(Cl)cc2)c2c(Cl)cc(-n3ncc(=O)[nH]c3=O)cc2Cl)nc1-c1ccccc1` (racemic) [Comp 300] to `CCOC(=O)Cc1sc(C(c2ccc(Cl)cc2)c2c(Cl)cc(-n3ncc(=O)[nH]c3=O)cc2Cl)nc1-c1ccccc1Cl` (racemic) [Comp 293], the “% inh. (percentage inhibition of IL-5 production)” value rises from 27% to 59%.

Compared with `O=c1cnn(-c2cc(Cl)c(C(c3ccc(Cl)cc3)c3nc(-c4cc(Cl)ccc4Cl)cs3)c(Cl)c2)c(=O)[nH]1` (racemic) [Comp 257], `O=c1cnn(-c2cc(Cl)c(C(c3ccc(Cl)cc3)c3nc(-c4cccc(F)c4F)cs3)c(Cl)c2)c(=O)[nH]1` (racemic) [Comp 337] is higher in “% inh. (percentage inhibition of IL-5 production)” value: 82% for the first, 96% for the second.

Going from `O=c1cnn(-c2ccc(C(Sc3ccc(F)cc3)c3ccc(Cl)cc3)c(Cl)c2)c(=O)[nH]1` (racemic) [Compound 57] to `O=c1cnn(-c2ccc(C(Sc3cccc[n+]3[O-])c3ccc(Cl)cc3)c(Cl)c2)c(=O)[nH]1` (racemic) [Compound 73], the “% inh. (percentage inhibition of IL-5 production)” value falls from 50% to 21%.

Going from `CN1CCN(C(=O)c2sc(C(c3ccc(Cl)cc3)c3c(Cl)cc(-n4ncc(=O)[nH]c4=O)cc3Cl)nc2-c2ccccc2)CC1` (racemic) [Comp 304] to `Cc1ccccc1-c1csc(C(c2ccc(Cl)cc2)c2c(Cl)cc(-n3ncc(=O)[nH]c3=O)cc2Cl)n1` (racemic) [Comp 243], the “% inh. (percentage inhibition of IL-5 production)” value rises from 35% to 97%.

Going from `CN1CCC(NC(c2ccc(Cl)cc2)c2ccc(-n3ncc(=O)[nH]c3=O)cc2Cl)CC1` (racemic) [Compound 48, (±)-2-[3-chloro-4-[(4-chlorophenyl)[(1-methyl)-4-piperidinyl)amino]methyl]phenyl]-1,2,4-triazine-3,5(2H,4H)-dione] to `Cc1nnc(C(c2ccc(Cl)cc2)c2ccc(-n3ncc(=O)[nH]c3=O)cc2Cl)o1` (racemic) [Comp 102], the “% inh. (percentage inhibition of IL-5 production)” value falls from 29% to 14%.

Compared with `Cn1ccnc1SC(c1ccc(Cl)cc1)c1ccc(-n2ncc(=O)[nH]c2=O)cc1Cl` (racemic) [Compound 58], `CN(C)CCSC(c1ccc(Cl)cc1)c1ccc(-n2ncc(=O)[nH]c2=O)cc1Cl` (racemic) [Compound 54] is higher in “% inh. (percentage inhibition of IL-5 production)” value: 5% for the first, 14% for the second.

`O=c1cnn(-c2cc(Cl)c(C(Sc3nc4ccccc4o3)c3ccc(Cl)c(C(F)(F)F)c3)c(Cl)c2)c(=O)[nH]1` (stereo not drawn) [Compound 379] and `O=c1cnn(-c2cc(Cl)c(C(Sc3nc4ccccc4s3)c3ccc(Cl)c(C(F)(F)F)c3)c(Cl)c2)c(=O)[nH]1` (stereo not drawn) [Compound 385] are the same in “% inh. (percentage inhibition of IL-5 production)” value: 95% for the first, 95% for the second.

Going from `Cc1cc(C(C)(c2ccc(Cl)c(C(F)(F)F)c2)c2nc(-c3ccccc3)cs2)c(Cl)cc1-n1ncc(=O)[nH]c1=O` (racemic) [Comp 235] to `CC(c1ccc(Cl)c(C(F)(F)F)c1)(c1nc(-c2ccccc2)cs1)c1ccc(-n2ncc(=O)[nH]c2=O)cc1Cl` (racemic) [Comp 239], the “% inh. (percentage inhibition of IL-5 production)” value falls from 79% to 72%.

First: O=c1cnn(-c2cc(Cl)c(C(c3ccc(Cl)cc3)c3nnc(-c4ccco4)o3)c(Cl)c2)c(=O)[nH]1 (racemic) [Compound 161]
Second: Cc1ccccc1-c1nnc(C(c2ccc(Cl)cc2)c2c(Cl)cc(-n3ncc(=O)[nH]c3=O)cc2Cl)o1 (racemic) [Compound 188]
The “% inh. (percentage inhibition of IL-5 production)” value of the first is lower: 91% for the first, 95% for the second.

Compared with `CN1CCN(c2ccnc(SC(c3ccc(Cl)cc3)c3c(Cl)cc(-n4ncc(=O)[nH]c4=O)cc3Cl)n2)CC1` (racemic) [Compound 345], `CCOC(=O)N1CCC(Nc2ccnc(SC(c3ccc(Cl)cc3)c3c(Cl)cc(-n4ncc(=O)[nH]c4=O)cc3Cl)n2)CC1` (racemic) [Compound 351] is lower in “% inh. (percentage inhibition of IL-5 production)” value: 88% for the first, 62% for the second.

Going from `Cc1sc(C(c2ccc(Cl)c(C(F)(F)F)c2)c2c(Cl)cc(-n3ncc(=O)[nH]c3=O)cc2Cl)nc1-c1ccccc1` (racemic) [Comp 246] to `CC(c1ccc(Cl)c(C(F)(F)F)c1)(c1nc(-c2ccccc2)cs1)c1c(Cl)cc(-n2ncc(=O)[nH]c2=O)cc1Cl` (racemic) [Comp 23], the “% inh. (percentage inhibition of IL-5 production)” value falls from 94% to 83%.

First: O=c1cnn(-c2ccc(C(O)(c3ccc(Cl)cc3)c3nc(-c4ccccc4)cs3)c(Cl)c2)c(=O)[nH]1 (racemic) [Comp 34]
Second: O=c1cnn(-c2ccc(C(c3ccc(Cl)cc3)c3nc(-c4ccccc4)sc3-c3ccccc3)c(Cl)c2)c(=O)[nH]1 (racemic) [Compound 373]
The “% inh. (percentage inhibition of IL-5 production)” value of the first is higher: 58% for the first, 40% for the second.

Compared with `CCc1sc(C(C)(c2ccc(Cl)c(Cl)c2)c2c(Cl)cc(-n3ncc(=O)[nH]c3=O)cc2Cl)nc1-c1ccccc1` (racemic) [Comp 251], `O=c1cnn(-c2cc(Cl)c(C(c3ccc(Cl)cc3)c3nnc(-c4ccccc4[N+](=O)[O-])o3)c(Cl)c2)c(=O)[nH]1` (racemic) [Compound 210] is lower in “% inh. (percentage inhibition of IL-5 production)” value: 90% for the first, 79% for the second.

First: Cl.O.O=c1cnn(-c2cc(Cl)c(C(c3ccc(Cl)cc3)c3csc(-c4ccncc4)n3)c(Cl)c2)c(=O)[nH]1 (racemic) [Compound 366]
Second: Nc1ccc(-c2nnc(C(c3ccc(Cl)cc3)c3c(Cl)cc(-n4ncc(=O)[nH]c4=O)cc3Cl)o2)cc1 (racemic) [Compound 184]
The “% inh. (percentage inhibition of IL-5 production)” value of the first is higher: 93% for the first, 83% for the second.

Going from `Cc1nc(-c2ccccc2Cl)c(C(c2ccc(Cl)cc2)c2ccc(-n3ncc(=O)[nH]c3=O)cc2Cl)s1` (racemic) [Compound 139] to `O=c1cnn(-c2cc(Cl)c(C(Sc3nc4cc(Cl)ccc4s3)c3ccc(Cl)c(C(F)(F)F)c3)c(Cl)c2)c(=O)[nH]1` (racemic) [Compound 402], the “% inh. (percentage inhibition of IL-5 production)” value rises from 60% to 90%.

With `O=c1cnn(-c2cc(Cl)c(C(Sc3cscn3)c3ccc(Cl)c(C(F)(F)F)c3)c(Cl)c2)c(=O)[nH]1` (stereo not drawn) [Compound 387] the “% inh. (percentage inhibition of IL-5 production)” value was 93%.

same assay, conditions: test dose 1×10^−6 M, 48 hours, read-out: % inh. (percentage inhibition of IL-5 production)

Going from `O=c1cnn(-c2ccc(C(Sc3ncc[nH]3)c3ccc(Cl)cc3)c(Cl)c2)c(=O)[nH]1` (racemic) [Compound 94, (±)-2-[3-chloro-4-[(4-chlorophenyl)(1H-imidazol-2-ylthio)methyl]phenyl]-1,2,4-triazine-3,5(2H,4H)-dione] to `CC(C)COC(c1ccc(Cl)cc1)c1ccc(-n2ncc(=O)[nH]c2=O)cc1Cl` (racemic) [Compound 133, (±)-2-[3-chloro-4-[(4-chloro-phenyl)(2-methylpropoxy)methyl]phenyl]-1,2,4-triazine-3,5(2H,4H)-dione], the inhibition at 1 µM rises from 18% to 50%.

Going from `O=c1cnn(-c2ccc(C(c3ccc(Cl)cc3)c3nc4ccccc4o3)c(Cl)c2)c(=O)[nH]1` (racemic) [Compound 131, (±)-2-[4-[2-benzoxazolyl(4-chlorophenyl)methyl]-3-chlorophenyl]-1,2,4-triazine-3,5(2H,4H)-dione] to `CN1CCN(C(c2ccc(Cl)cc2)c2ccc(-n3ncc(=O)[nH]c3=O)cc2Cl)CC1` (racemic) [Compound 118, (±)-2-[3-chloro-4-[(4-chlorophenyl)(4-methyl-1-piperazinyl)methyl]phenyl]-1,2,4-triazine-3,5(2H,4H)-dione], the inhibition at 1 µM falls from 76% to 34%.

`O=c1cnn(-c2cc(Cl)c(C(Sc3[nH]c(=S)[nH]c3-c3ccccc3)c3ccc(Cl)c(C(F)(F)F)c3)c(Cl)c2)c(=O)[nH]1` (racemic) [Compound 400, (±)-2-[3,5-dichloro-4-[[4-chloro-3-(trifluoromethyl)phenyl][(2,3-dihydro-5-phenyl-2-thioxo-1H-imidazol-4-yl)thio]-methyl]phenyl]-1,2,4-triazine-3,5(2H,4H)-dione] gave an inhibition at 1 µM of 76%.
